The results in this text go back to PubChem BioAssay AID977614 (Broad Institute, 2014).

Activity calls are given as the source filed them.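 Rule for the calls: active = parasite count per well reduced by over 3 SD from the mean, with host cell number above 80% of untreated; inactive = the rest.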

The test system of the experiment is L. donovani amastigotes in THP-1 macrophages, DAPI imaging, 72 h. Briefly: antileishmanial activity in infected macrophages – imaging, THP-1 host macrophages, single concentration (AID 977614).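 Note: signal is the parasite per host cell ratio from DAPI stained kinetoplasts and nuclei.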
One may read the AC50 as the concentration at which the activity in the assay is half-maximal. As for `CCCNC(=O)N1C[C@H]2[C@@H](c3ccccc31)[C@@H](CO)N2Cc1cccc(OC)c1`, the AC50 was > 10 µM (inactive).
For `C[C@@H]1CN([C@H](C)CO)C(=O)CCCn2nncc2CO[C@H]1CN(C)C(=O)c1ccc2ccn(C)c2c1` the value was > 10 µM (inactive); for `O=C(C1CC1)N1C[C@H]2[C@@H](c3ccccc31)[C@H](CO)N2C(=O)c1ccccc1`, > 10 µM (inactive).
For `C[C@H]1CN([C@@H](C)CO)C(=O)CCCn2cc(nn2)CO[C@H]1CN(C)C(=O)Nc1cccc(C(F)(F)F)c1` the value was > 10 µM (inactive); for `C[C@H]1CN([C@@H](C)CO)C(=O)CCCn2nncc2CO[C@H]1CN(C)C(=O)Oc1cccc2ccccc12`, > 10 µM (inactive).
For `O=C(NC[C@H]1[C@@H](c2ccccc2)[C@@H](CO)N1C(=O)C1CCC1)NC1CCCC1` the value was > 10 µM (inactive); for `COc1ccc(CN2[C@@H](CO)[C@@H]3c4ccccc4NC[C@@H]32)cc1`, > 10 µM (inactive); for `CC(C)NC(=O)N1[C@H](CO)[C@H]2c3ccccc3N(C)C[C@H]21`, > 10 µM (inactive).
With `C[C@H]1CN([C@@H](C)CO)C(=O)CCCn2nncc2CO[C@@H]1CN(C)S(=O)(=O)c1ccc(Oc2ccccc2)nc1`, the AC50 is > 10 µM (inactive).
For `CCN(C[C@H]1[C@@H](c2ccccc2)[C@H](CO)N1C(=O)COC)S(C)(=O)=O` the value was > 10 µM (inactive).
In the case of `O=C(Nc1ccccc1F)N1C[C@@H]2[C@H](c3ccccc31)[C@H](CO)N2C(=O)Cc1cccnc1`, the AC50 was > 10 µM (inactive).
For `CCNC[C@@H]1[C@@H](c2ccccc2)[C@@H](CO)N1C(=O)Cc1ccccn1` the value was > 10 µM (inactive); for `COc1ccc(CN(C)C[C@H]2OCc3cnnn3CCCC(=O)N([C@H](C)CO)C[C@H]2C)cc1`, > 10 µM (inactive); for `O=C(NC[C@@H]1[C@@H](c2ccccc2)[C@@H](CO)N1Cc1cccnc1)c1ccccn1`, > 10 µM (inactive).
For `CC(=O)N(CC1CCC1)C[C@H]1N[C@H](CO)[C@@H]1c1ccc(C2=CCCC2)cc1` the value was > 10 µM (inactive); for `C[C@H]1CN([C@@H](C)CO)C(=O)CCCn2nncc2CO[C@H]1CN(C)S(=O)(=O)c1cn(C)cn1`, > 10 µM (inactive); for `COc1ccccc1S(=O)(=O)N(C)C[C@@H]1OCc2cn(nn2)CCCC(=O)N([C@H](C)CO)C[C@H]1C`, > 10 µM (inactive).
For `C[C@H](CO)N1C[C@H](C)[C@H](CN(C)Cc2ccc3c(c2)OCCN3C)OCc2cnnn2CCCC1=O` the value was > 10 µM (inactive).
Consider `CCCNC(=O)N1[C@H](CO)[C@H](c2ccc(-c3ccc(C#N)cc3)cc2)[C@@H]1CNC`, for which the AC50 was > 10 µM (inactive).
As for `CCCC(=O)N1C[C@H]2[C@@H](c3ccccc31)[C@@H](CO)N2Cc1cocn1`, the AC50 was > 10 µM (inactive).
For `C/C=C/c1ccc([C@H]2[C@@H](CO)N(S(=O)(=O)CC)[C@H]2CN(C)C(=O)CC)cc1` the value was > 10 µM (inactive); for `C[C@H]1CN([C@@H](C)CO)C(=O)CCCn2nncc2CO[C@H]1CN(C)Cc1ccc2cccnc2c1`, > 10 µM (inactive); for `Cc1noc(C)c1S(=O)(=O)N(C)C[C@@H]1OCc2cn(nn2)CCCC(=O)N([C@H](C)CO)C[C@H]1C`, > 10 µM (inactive).
For `O=C(NC[C@H]1N[C@H](CO)[C@H]1c1ccc(-c2ccccc2F)cc1)c1ccccn1`, the AC50 was > 10 µM (inactive).
Turning to `C[C@@H]1CN([C@H](C)CO)C(=O)CCCn2nncc2CO[C@@H]1CN(C)C(=O)Nc1ccc(-c2cccs2)cc1`, the AC50 is > 10 µM (inactive).
For `CC(=O)N1[C@H](CO)[C@H]2c3ccccc3N(C(=O)c3ccc(F)cc3)C[C@H]21` the value was > 10 µM (inactive).
As to `O=C(Nc1ccc(F)cc1)N1[C@H](CO)[C@H]2c3ccccc3NC[C@H]21`, the AC50 is > 10 µM (inactive).
On to `C[C@@H]1CN([C@H](C)CO)C(=O)CCCn2nncc2CO[C@H]1CN(C)C(=O)c1ccc(N2CCN(C)CC2)cc1`, for which the AC50 is > 10 µM (inactive).
On to `C[C@H](CO)N1C[C@H](C)[C@H](CN(C)Cc2cccc3c2OCCCO3)OCc2cnnn2CCCC1=O`, for which the AC50 was > 10 µM (inactive).
On to `COc1ccc(NC(=O)N(C)C[C@H]2OCc3cnnn3CCCC(=O)N([C@H](C)CO)C[C@@H]2C)c(OC)c1`, for which the AC50 was > 10 µM (inactive).
Regarding `CC(C)NC(=O)N1[C@@H](CO)[C@@H]2c3ccccc3N(C)C[C@@H]21`, the AC50 was > 10 µM (inactive).
For `Cc1noc(C)c1NC(=O)N(C)C[C@@H]1OCc2cnnn2CCCC(=O)N([C@H](C)CO)C[C@@H]1C` the value was > 10 µM (inactive).
On to `C[C@H](CO)N1C[C@H](C)[C@@H](CN(C)C(=O)c2cc(-c3ccccc3)on2)OCc2cnnn2CCCC1=O`, for which the AC50 was > 10 µM (inactive).
`Cc1noc(C)c1S(=O)(=O)N(C)C[C@@H]1OCc2cnnn2CCCC(=O)N([C@@H](C)CO)C[C@H]1C`: the AC50 was > 10 µM (inactive).
Take `COc1ccc(NC(=O)N2C[C@@H]3[C@H](c4ccccc42)[C@H](CO)N3Cc2ccccn2)cc1`: the AC50 is > 10 µM (inactive).
For `COc1ccccc1NC(=O)N1C[C@@H]2[C@H](c3ccccc31)[C@H](CO)N2C(=O)C1CCCC1` the value was > 10 µM (inactive); for `C/C=C/c1ccc([C@@H]2[C@H](CO)N(C(C)=O)[C@H]2CN(CC)C(=O)CN(C)C)cc1`, > 10 µM (inactive); for `COCCNC[C@@H]1[C@H](c2ccccc2)[C@H](CO)N1c1nc(C)c(C)s1`, > 10 µM (inactive).
Take `CNC[C@@H]1OCc2cnnn2CCCC(=O)N([C@@H](C)CO)C[C@@H]1C`: the AC50 is > 10 µM (inactive).
With `C[C@H](CO)N1C[C@H](C)[C@@H](CN(C)C(=O)Nc2ccc3c(c2)OCO3)OCc2cn(nn2)CCCC1=O`, the AC50 is > 10 µM (inactive).
For `CC(=O)N1[C@H](CO)[C@H](c2ccc(-c3ccccc3F)cc2)[C@@H]1CNC(C)C` the value was > 10 µM (inactive); for `COCC(=O)NC[C@@H]1[C@@H](c2ccccc2)[C@@H](CO)N1C(=O)c1ccccc1`, > 10 µM (inactive).
As for `C[C@H]1CN([C@@H](C)CO)C(=O)CCCn2nncc2CO[C@@H]1CN(C)C(=O)Nc1ccccc1C(F)(F)F`, the AC50 is > 10 µM (inactive).
For `CN(C[C@H]1[C@@H](c2ccccc2)[C@H](CO)N1Cc1ccccn1)S(C)(=O)=O` the value was > 10 µM (inactive); for `CCCC(=O)N1C[C@H]2[C@@H](c3ccccc31)[C@@H](CO)N2C(=O)Nc1ccc(F)cc1`, > 10 µM (inactive); for `CCCN1[C@H](CO)[C@H](c2ccc(C3=CCCC3)cc2)[C@H]1CNC(=O)NC(C)C`, > 10 µM (inactive).
In the case of `O=C(CC(F)(F)F)N1C[C@@H]2[C@H](c3ccccc31)[C@H](CO)N2Cc1cccnc1`, the AC50 is > 10 µM (inactive).
Consider `C[C@@H]1CN([C@@H](C)CO)C(=O)CCCn2nncc2CO[C@H]1CN(C)Cc1ccc2cccnc2c1`, for which the AC50 is > 10 µM (inactive).
For `O=C(Nc1ccccc1F)N1C[C@H]2[C@@H](c3ccccc31)[C@@H](CO)N2C(=O)Cc1cccnc1` the value was > 10 µM (inactive); for `C[C@@H]1CN([C@@H](C)CO)C(=O)CCCn2nncc2CO[C@@H]1CN(C)Cc1cccc(C(F)(F)F)c1`, > 10 µM (inactive); for `COc1ccccc1NC(=O)N1C[C@H]2[C@@H](c3ccccc31)[C@@H](CO)N2Cc1ccc2c(c1)OCO2`, > 10 µM (inactive).
For `CCC(=O)NC[C@H]1N[C@H](CO)[C@@H]1c1ccc(-c2cccnc2)cc1` the value was > 10 µM (inactive); for `CC(=O)NC[C@H]1[C@@H](c2ccc(-c3cccnc3)cc2)[C@@H](CO)N1C(=O)CC1CC1`, > 10 µM (inactive); for `COc1cccc(NC(=O)N2[C@@H](CO)[C@@H](c3ccccc3)[C@@H]2CNCC(C)C)c1`, > 10 µM (inactive).
Consider `C[C@@H]1CN([C@@H](C)CO)C(=O)CCCn2nncc2CO[C@H]1CN(C)S(=O)(=O)c1ccc2c(c1)OCCCO2`, for which the AC50 was > 10 µM (inactive).
For `O=C(c1ccccn1)N1C[C@@H]2[C@H](c3ccccc31)[C@@H](CO)N2C(=O)Nc1ccccc1Cl` the value was > 10 µM (inactive).
For the compound `C[C@@H]1CN([C@H](C)CO)C(=O)CCCn2nncc2CO[C@H]1CN(C)C(=O)Nc1ccc2c(c1)OCCO2`, the AC50 was > 10 µM (inactive).
For `CCC(=O)N1[C@H](CO)[C@H](c2ccccc2)[C@@H]1CN(CC)C(=O)c1cccc(F)c1` the value was > 10 µM (inactive).
Regarding `CC(=O)N1[C@H](CNC(=O)C2CC2)[C@H](c2ccc(-c3ccccc3)cc2)[C@@H]1CO`, the AC50 was > 10 µM (inactive).
For `C[C@H]1CN([C@@H](C)CO)C(=O)CCCn2cc(nn2)CO[C@@H]1CN(C)S(=O)(=O)c1cccc(C#N)c1` the value was > 10 µM (inactive); for `Cc1noc(C)c1S(=O)(=O)N(C)C[C@H]1OCc2cn(nn2)CCCC(=O)N([C@@H](C)CO)C[C@H]1C`, > 10 µM (inactive); for `CCS(=O)(=O)N(C)C[C@@H]1N[C@H](CO)[C@@H]1c1ccc(C#CC(C)C)cc1`, > 10 µM (inactive).
For `C[C@@H]1CN([C@@H](C)CO)C(=O)CCCn2nncc2CO[C@H]1CN(C)Cc1cccc2c1OCCCO2` the value was > 10 µM (inactive); for `O=C(NC[C@H]1[C@H](c2ccccc2)[C@H](CO)N1Cc1ccccn1)C1CCCC1`, > 10 µM (inactive); for `CCC(=O)NC[C@H]1[C@@H](c2ccc(-c3ccc(C#N)cc3)cc2)[C@@H](CO)N1CCC(F)(F)F`, > 10 µM (inactive).
For `O=C(CN1CCOCC1)N1[C@@H](CO)[C@@H]2c3ccccc3NC[C@@H]21` the value was > 10 µM (inactive); for `CCNC[C@H]1[C@@H](c2ccccc2)[C@@H](CO)N1C(=O)Cc1ccccn1`, > 10 µM (inactive).
With `OC[C@@H]1[C@H]2c3ccccc3NC[C@H]2N1CC1CCOCC1`, the AC50 is > 10 µM (inactive).
`O=C(c1ccccc1F)N1C[C@@H]2[C@H](c3ccccc31)[C@@H](CO)N2Cc1ccc2c(c1)OCO2`: the AC50 was > 10 µM (inactive).
